Results published in US20060063759A1, “Tricyclic steroid hormone nuclear receptor modulators” (priority 2002, published 2006).

Experiments:
human MR = target: T1, human MR (Homo sapiens, UniProt P08235); assay: Mineralocorticoid Receptor Binding Assay ([3H]-aldosterone); details: [3H]-aldosterone binding, human MR expressed in Sf9 cells; read-out: MR Ki
T1 construct: The full length human MR gene is cloned from a human kidney or human brain cDNA library; His tag from the pAcHLT vector (own knowledge); made in house; host or cells: Sf9 insect cells (baculovirus, pAcHLT transfer vector)
T1 sequence (P08235 1-984): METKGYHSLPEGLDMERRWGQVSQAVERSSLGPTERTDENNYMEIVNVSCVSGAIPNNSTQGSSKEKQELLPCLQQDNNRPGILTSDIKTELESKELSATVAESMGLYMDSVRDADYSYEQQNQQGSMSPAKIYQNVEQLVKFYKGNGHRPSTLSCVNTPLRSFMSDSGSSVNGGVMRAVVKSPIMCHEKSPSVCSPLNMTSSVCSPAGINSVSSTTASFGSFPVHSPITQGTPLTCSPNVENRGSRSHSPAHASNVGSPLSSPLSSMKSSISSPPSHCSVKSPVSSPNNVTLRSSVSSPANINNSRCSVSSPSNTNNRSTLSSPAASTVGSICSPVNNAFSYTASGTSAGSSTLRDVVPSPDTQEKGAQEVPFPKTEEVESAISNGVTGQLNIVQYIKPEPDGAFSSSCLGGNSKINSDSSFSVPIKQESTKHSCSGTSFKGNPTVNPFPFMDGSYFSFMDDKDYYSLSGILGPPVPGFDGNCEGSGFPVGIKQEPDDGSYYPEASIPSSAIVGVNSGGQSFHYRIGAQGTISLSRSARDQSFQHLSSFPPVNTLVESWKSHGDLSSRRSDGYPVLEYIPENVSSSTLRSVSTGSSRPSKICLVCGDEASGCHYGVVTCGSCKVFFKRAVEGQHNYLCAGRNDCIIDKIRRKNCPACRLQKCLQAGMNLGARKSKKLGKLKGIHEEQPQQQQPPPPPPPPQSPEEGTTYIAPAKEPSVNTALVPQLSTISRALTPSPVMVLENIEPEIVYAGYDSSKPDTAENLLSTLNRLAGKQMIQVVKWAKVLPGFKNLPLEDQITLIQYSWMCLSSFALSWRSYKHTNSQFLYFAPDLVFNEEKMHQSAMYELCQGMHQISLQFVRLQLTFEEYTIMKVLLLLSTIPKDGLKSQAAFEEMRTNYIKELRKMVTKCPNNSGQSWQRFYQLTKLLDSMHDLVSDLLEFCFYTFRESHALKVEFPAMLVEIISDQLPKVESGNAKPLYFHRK
Outline: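 Lysate supernatant of Sf9 cells expressing full-length human MR (20-25 μg protein) was incubated with 0.5 nM [3H]-aldosterone and test compound in molybdate/Tris/phosphate/glycerol buffer, pH 7.5, ~16 h at 4 °C. Bound ligand was filtered and counted by scintillation; IC50 is the concentration halving [3H]-aldosterone binding.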

glucocorticoid receptor = target: T2, glucocorticoid receptor (Homo sapiens, UniProt P04150); assay: Glucocorticoid Receptor Binding Assay ([3H]-dexamethasone, A549 cell extract); details: [3H]-dexamethasone binding, read-out: GR Ki
T2 construct: containing 50-200 ug of A549 cell extract and 1.86 nM [^3H]-dexamethasone; host or cells: A549 human lung epithelial cells (sonicated cell extract)
T2 sequence (P04150 1-777): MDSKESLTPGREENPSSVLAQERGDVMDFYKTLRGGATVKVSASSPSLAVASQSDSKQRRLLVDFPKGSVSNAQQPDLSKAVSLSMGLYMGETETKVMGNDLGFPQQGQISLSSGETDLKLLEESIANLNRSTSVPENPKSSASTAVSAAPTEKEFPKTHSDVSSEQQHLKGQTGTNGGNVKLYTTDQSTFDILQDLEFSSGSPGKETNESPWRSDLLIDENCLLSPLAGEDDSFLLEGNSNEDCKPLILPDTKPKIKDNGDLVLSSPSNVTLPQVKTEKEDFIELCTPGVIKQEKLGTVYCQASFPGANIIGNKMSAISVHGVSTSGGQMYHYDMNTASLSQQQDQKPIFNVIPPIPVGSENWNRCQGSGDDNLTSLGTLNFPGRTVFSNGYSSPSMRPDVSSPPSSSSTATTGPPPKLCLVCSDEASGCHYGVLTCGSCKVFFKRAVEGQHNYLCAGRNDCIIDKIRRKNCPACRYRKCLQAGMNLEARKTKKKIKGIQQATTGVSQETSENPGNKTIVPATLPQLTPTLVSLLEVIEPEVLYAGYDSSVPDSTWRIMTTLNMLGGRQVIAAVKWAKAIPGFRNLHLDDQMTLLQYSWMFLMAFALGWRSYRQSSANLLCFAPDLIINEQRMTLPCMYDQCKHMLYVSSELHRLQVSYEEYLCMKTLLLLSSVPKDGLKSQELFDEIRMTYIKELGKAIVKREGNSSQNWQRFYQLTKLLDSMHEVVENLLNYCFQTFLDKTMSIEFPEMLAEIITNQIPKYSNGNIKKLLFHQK
Outline: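 A549 cell extract (50–200 ug) incubated with 1.86 nM [3H]-dexamethasone and test compound for 16 h at 4 °C in Tris-HCl pH 7.2 buffer with glycerol and molybdate. Unbound radioligand removed by dextran-coated charcoal, then supernatant bound counts measured by scintillation.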

| Ki (human MR) [nM] | Ki (glucocorticoid receptor) [nM] | Structure (SMILES) |
| --- | --- | --- |
| < 500 | < 500 | O=c1[nH]c2cc(C=C3c4ccc(F)cc4CCc4cc(F)ccc43)ccc2o1 [Example 458] |
| < 500 | < 1000 | Cn1c(=O)[nH]c2cc(C=C3c4ccc(F)cc4CCc4cc(F)ccc43)ccc21 [Example 459] |
| < 500 | < 1000 | Nc1n[nH]c2cc(C=C3c4ccc(F)cc4CCc4cc(F)ccc43)ccc12 [Example 460] |
| < 500 | < 500 | Cn1c(=O)[nH]c2cc(/C=C3/c4ccccc4CCc4cc(F)ccc43)ccc21 [Example 461] |
| < 500 | < 1000 | Cn1c(=O)[nH]c2cc(/C=C3\c4ccccc4CCc4cc(F)ccc43)ccc21 [Example 462] |
| < 500 | < 10000 | O=c1[nH]c2ccc(C=C3c4ccccc4CCc4cc(F)cc(F)c43)cc2[nH]1 [Example 463] |
| < 500 | < 10000 | CC(C)n1c(=O)[nH]c2cc(C=C3c4ccc(F)cc4CCc4cc(F)ccc43)ccc21 [Example 464] |
| < 500 | < 1000 | O=c1[nH]c2ccc(/C=C3/c4ccccc4CCc4cccc(Cl)c43)cc2[nH]1 [Example 465] |
| < 500 | < 1000 | O=c1[nH]c2ccc(/C=C3\c4ccccc4CCc4cccc(Cl)c43)cc2[nH]1 [Example 466] |
| < 500 | < 500 | O=c1[nH]c2cc(C=C3c4ccccc4CCc4ccccc43)ccc2s1 [Example 467] |
| < 500 | < 500 | O=c1[nH]c2cc(/C=C3/c4ccccc4CCc4cc(F)ccc43)ccc2s1 [Example 468] |
| < 500 | < 500 | O=c1[nH]c2cc(/C=C3\c4ccccc4CCc4cc(F)ccc43)ccc2s1 [Example 469] |
| < 500 | < 10000 | O=c1[nH]c2ccc(C=C3c4cccc(F)c4CCc4c(F)cccc43)cc2[nH]1 [Example 470] |
| < 500 | < 500 | O=c1[nH]c2cc(C=C3c4cccc(F)c4CCc4c(F)cccc43)ccc2o1 [Example 471] |
| < 500 | < 10000 | O=c1[nH]c2ccc(/C=C3\c4ccccc4CCc4cc(C(F)(F)F)ccc43)cc2[nH]1 [Example 472] |
| < 500 | < 10000 | O=c1[nH]c2ccc(/C=C3/c4ccccc4CCc4cc(C(F)(F)F)ccc43)cc2[nH]1 [Example 473] |
| < 500 | < 1000 | Fc1ccc2c(c1)CCc1ccccc1C2=Cc1cccnc1F [Example 474] |
| < 500 | < 10000 | CS(=O)(=O)Nc1cccc(/C=C2\c3ccccc3CCc3sccc32)c1 [Example 475] |
| < 500 | < 500 | CS(=O)(=O)Nc1cccc(/C=C2/c3ccccc3CCc3sccc32)c1 [Example 476] |
| < 500 | < 10000 | Nc1cccc(C=C2c3ccccc3CCc3sccc32)c1 [Example 477, 3-(9,10-Dihydro-1-thia-benzo[f]azulen-4-ylidenemethyl)-phenylamine] |
| < 500 | < 10000 | Nc1cccc(/C=C2\c3ccc(Cl)cc3CCc3sccc32)c1 [Example 478, 3-(7-Chloro-9,10-dihydro-1-thia-benzo[f]azulen-4-ylidenemethyl)-phenylamine] |
| < 500 | < 500 | CS(=O)(=O)Nc1cccc(/C=C2\c3ccccc3CCc3sc(Cl)cc32)c1 [Example 481, N-[3-(2-Chloro-9,10-dihydro-1-thia-benzo[f]azulen-4-ylidenemethyl)-phenyl]-methanesulfonamide] |
| < 500 | < 500 | CS(=O)(=O)Nc1cccc(/C=C2\c3ccc(Cl)cc3CCc3sc(Cl)cc32)c1 [Example 482, N-[3-(2,7-Dichloro-9,10-dihydro-1-thia-benzo[f]azulen-4-ylidenemethyl)-phenyl]-methanesulfonamide] |
| < 500 | < 1000 | O=c1[nH]c2ccc(/C=C3\c4ccc(F)cc4CCc4ncccc43)cc2[nH]1 [Example 487, (E)-5-(8-Fluoro-10,11-dihydro-benzo[4,5]cyclohepta[1,2-b]pyridin-5-ylidenemethyl)-1,3-dihydro-benzoimidazol-2-one] |

Further lines, the compound ahead of its results:

| Structure (SMILES) | Ki (human MR) [nM] | Ki (glucocorticoid receptor) [nM] |
| --- | --- | --- |
| O=c1[nH]c2cc(C=C3c4ccc(F)cc4CCc4cc(F)ccc43)ccc2n1CCN1CCOCC1 [Example 436, 5-(2,8-difluoro-10,11-dihydro-dibenzo[a,d]cyclohepten-5-ylidenemethyl)-1-(2-morpholin-4-yl-ethyl)-1,3-dihydro-benzoimidazol-2-one] | < 500 | < 1000 |
| C(=C1c2ccccc2CCc2ccccc21)c1cn[nH]c1 [Example 439] | < 500 | < 500 |
| Nc1nc2ccc(C=C3c4ccccc4CCc4ccccc43)cc2s1 [Example 442] | < 500 | < 500 |
| C(=C1c2ccccc2CCc2ccccc21)c1ccc2nc[nH]c2c1 [Example 443] | < 500 | < 10000 |
| Nc1n[nH]c2cc(C=C3c4ccccc4CCc4ccccc43)ccc12 [Example 444] | < 500 | < 500 |
| Nc1nc2ccc(C=C3c4ccccc4CCc4ccccc43)cc2[nH]1 [Example 445] | < 500 | < 10000 |
| CS(=O)(=O)Nc1csc(C=C2c3ccccc3CCc3ccccc32)n1 [Example 446] | < 500 | < 500 |
| O=C1Cc2ccc(C=C3c4ccccc4CCc4ccccc43)cc2N1 [Example 447] | < 500 | < 500 |
| O=c1[nH]c2ccc(/C=C3\c4ccccc4CCc4cc(F)ccc43)cc2[nH]1 [Example 448] | < 500 | < 10000 |
| O=c1[nH]c2ccc(/C=C3/c4ccccc4CCc4cc(F)ccc43)cc2[nH]1 [Example 449] | < 500 | < 10000 |
| O=c1[nH]c2cc(/C=C3/c4ccccc4CCc4cc(F)ccc43)ccc2o1 [Example 450] | < 500 | < 500 |
| O=c1[nH]c2cc(/C=C3\c4ccccc4CCc4cc(F)ccc43)ccc2o1 [Example 451] | < 500 | < 10000 |
| O=c1[nH]c2ccc(/C=C3/c4ccccc4CCc4cc(C(F)F)ccc43)cc2[nH]1 [Example 452] | < 500 | < 1000 |
| O=c1[nH]c2ccc(/C=C3\c4ccccc4CCc4cc(C(F)F)ccc43)cc2[nH]1 [Example 453] | < 500 | < 1000 |
| Cn1c(=O)[nH]c2cc(C=C3c4ccccc4CCc4ccccc43)ccc21 [Example 454] | < 500 | < 500 |
| N#Cc1ccc2c(c1)CCc1ccccc1/C2=C/c1ccc2[nH]c(=O)[nH]c2c1 [Example 455] | < 500 | < 10000 |
| N#Cc1ccc2c(c1)CCc1ccccc1/C2=C\c1ccc2[nH]c(=O)[nH]c2c1 [Example 456] | < 500 | < 10000 |
| O=c1[nH]c2cc(C=C3c4ccc(F)cc4CCc4cc(F)ccc43)ccc2s1 [Example 457] | < 500 | < 500 |
